ChEMBL document CHEMBL3813616, “Discovery of novel 7-azaindoles as PDK1 inhibitors” (Bioorg Med Chem Lett, 2016)

Key:
[1] = target: Mitogen-activated protein kinase 1 (Homo sapiens) (UniProt P28482); experiment: Inhibition of human MAPK2 (2 to 360 residues) assessed as enzyme activity at 1 uM using 33P ATP by radioactive filter binding assay; parameters: scale not given: the % may be the effect or the level left
[2] = target: Homeodomain-interacting protein kinase 3 (Homo sapiens) (UniProt Q9H422); experiment: Inhibition of human HIPK3 (161 to 562 residues) assessed as enzyme activity at 1 uM using 33P ATP by radioactive filter binding assay; parameters: scale not given: the % may be the effect or the level left
Sequence of Homeodomain-interacting protein kinase 3 (Homo sapiens) (Q9H422 whole entry, looked up, the tested form may be a part): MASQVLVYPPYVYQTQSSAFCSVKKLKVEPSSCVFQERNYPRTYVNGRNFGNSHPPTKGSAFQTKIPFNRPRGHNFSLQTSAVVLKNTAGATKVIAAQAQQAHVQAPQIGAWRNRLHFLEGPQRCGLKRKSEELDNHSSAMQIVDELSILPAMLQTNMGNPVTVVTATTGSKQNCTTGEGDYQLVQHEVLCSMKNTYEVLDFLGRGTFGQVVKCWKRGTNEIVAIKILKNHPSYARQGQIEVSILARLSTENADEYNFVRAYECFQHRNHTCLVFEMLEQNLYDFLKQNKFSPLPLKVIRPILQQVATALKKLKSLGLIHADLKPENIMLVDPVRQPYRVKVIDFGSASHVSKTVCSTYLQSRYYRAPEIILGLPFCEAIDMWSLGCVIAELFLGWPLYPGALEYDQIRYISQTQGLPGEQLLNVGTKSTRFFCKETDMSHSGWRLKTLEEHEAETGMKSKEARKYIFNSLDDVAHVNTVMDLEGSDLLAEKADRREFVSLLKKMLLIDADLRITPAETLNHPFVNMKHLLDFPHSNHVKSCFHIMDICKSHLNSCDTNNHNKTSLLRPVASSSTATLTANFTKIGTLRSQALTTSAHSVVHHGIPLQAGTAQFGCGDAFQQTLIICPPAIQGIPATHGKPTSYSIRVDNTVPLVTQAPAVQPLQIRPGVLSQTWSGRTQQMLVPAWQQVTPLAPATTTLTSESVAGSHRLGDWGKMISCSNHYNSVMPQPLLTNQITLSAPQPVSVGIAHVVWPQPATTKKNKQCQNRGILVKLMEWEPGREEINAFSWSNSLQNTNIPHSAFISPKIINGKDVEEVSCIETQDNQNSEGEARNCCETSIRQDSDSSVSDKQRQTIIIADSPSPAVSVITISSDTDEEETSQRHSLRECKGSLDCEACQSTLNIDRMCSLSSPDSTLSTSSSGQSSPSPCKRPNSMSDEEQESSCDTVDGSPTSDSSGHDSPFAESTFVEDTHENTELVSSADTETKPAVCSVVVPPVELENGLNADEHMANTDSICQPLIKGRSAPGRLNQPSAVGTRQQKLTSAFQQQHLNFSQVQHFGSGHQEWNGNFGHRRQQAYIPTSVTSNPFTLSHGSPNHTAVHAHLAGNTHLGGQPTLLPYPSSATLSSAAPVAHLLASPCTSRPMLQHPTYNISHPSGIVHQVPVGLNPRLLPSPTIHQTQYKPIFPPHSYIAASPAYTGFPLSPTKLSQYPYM

[3] = target: Serine/threonine-protein kinase Nek7 (Homo sapiens) (UniProt Q8TDX7); experiment: Inhibition of NEK7 (unknown origin) assessed as enzyme activity at 1 uM using 33P ATP by radioactive filter binding assay; parameters: scale not given: the % may be the effect or the level left
Sequence of Serine/threonine-protein kinase Nek7 (Homo sapiens) (Q8TDX7 whole entry, looked up, canonical isoform): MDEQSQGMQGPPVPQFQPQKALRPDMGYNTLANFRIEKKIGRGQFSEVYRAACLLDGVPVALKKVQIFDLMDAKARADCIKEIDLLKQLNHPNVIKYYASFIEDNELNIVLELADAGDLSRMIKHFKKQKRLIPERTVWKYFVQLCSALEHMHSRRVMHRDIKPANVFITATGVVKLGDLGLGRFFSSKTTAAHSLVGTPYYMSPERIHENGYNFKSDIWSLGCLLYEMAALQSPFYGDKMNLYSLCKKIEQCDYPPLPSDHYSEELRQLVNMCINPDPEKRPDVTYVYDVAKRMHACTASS

[4] = target: Phosphatidylinositol 4,5-bisphosphate 3-kinase catalytic subunit beta isoform (Homo sapiens, UniProt P42338); experiment: Inhibition of PI3K beta (unknown origin)
[5] = target: Aurora kinase C (Homo sapiens) (UniProt Q9UQB9); experiment: Inhibition of AURKC (unknown origin) assessed as enzyme activity at 1 uM using 33P ATP by radioactive filter binding assay; parameters: scale not given: the % may be the effect or the level left
Sequence of Aurora kinase C (Homo sapiens) (Q9UQB9 whole entry): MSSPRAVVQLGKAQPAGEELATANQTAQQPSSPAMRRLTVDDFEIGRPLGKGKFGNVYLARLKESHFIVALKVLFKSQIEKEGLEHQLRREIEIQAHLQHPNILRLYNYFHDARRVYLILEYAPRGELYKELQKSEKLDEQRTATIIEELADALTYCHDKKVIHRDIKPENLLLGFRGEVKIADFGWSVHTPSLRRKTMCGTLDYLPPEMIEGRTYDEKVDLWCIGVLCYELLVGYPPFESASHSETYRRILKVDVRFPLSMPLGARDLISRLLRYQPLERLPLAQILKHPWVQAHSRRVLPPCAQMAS

[6] = target: T1, Serine/threonine-protein kinase Sgk1 (Homo sapiens) (UniProt O00141); experiment: Inhibition of human SGK assessed as enzyme activity at 1 uM using 33P ATP by radioactive filter binding assay; parameters: scale not given: the % may be the effect or the level left
T1 sequence (whole entry): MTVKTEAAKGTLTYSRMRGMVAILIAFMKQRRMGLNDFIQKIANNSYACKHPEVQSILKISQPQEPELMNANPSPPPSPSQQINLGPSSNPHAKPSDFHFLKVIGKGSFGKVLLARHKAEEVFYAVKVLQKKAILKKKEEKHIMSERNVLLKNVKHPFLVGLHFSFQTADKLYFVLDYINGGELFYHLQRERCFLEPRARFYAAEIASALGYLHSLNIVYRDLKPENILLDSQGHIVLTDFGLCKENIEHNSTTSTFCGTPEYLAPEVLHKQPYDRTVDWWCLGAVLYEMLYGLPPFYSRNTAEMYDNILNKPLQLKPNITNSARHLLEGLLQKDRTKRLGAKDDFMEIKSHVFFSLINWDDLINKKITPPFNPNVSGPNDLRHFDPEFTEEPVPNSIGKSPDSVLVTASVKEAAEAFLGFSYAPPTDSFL

[7] = target: MAP kinase-activated protein kinase 2 (Homo sapiens) (UniProt P49137); experiment: Inhibition of human MAPKAPK2 (46 to 400 residues) assessed as enzyme activity at 1 uM using 33P ATP by radioactive filter binding assay; parameters: scale not given: the % may be the effect or the level left
Sequence of MAP kinase-activated protein kinase 2 (Homo sapiens) (P49137 whole entry, looked up, the tested form may be a part): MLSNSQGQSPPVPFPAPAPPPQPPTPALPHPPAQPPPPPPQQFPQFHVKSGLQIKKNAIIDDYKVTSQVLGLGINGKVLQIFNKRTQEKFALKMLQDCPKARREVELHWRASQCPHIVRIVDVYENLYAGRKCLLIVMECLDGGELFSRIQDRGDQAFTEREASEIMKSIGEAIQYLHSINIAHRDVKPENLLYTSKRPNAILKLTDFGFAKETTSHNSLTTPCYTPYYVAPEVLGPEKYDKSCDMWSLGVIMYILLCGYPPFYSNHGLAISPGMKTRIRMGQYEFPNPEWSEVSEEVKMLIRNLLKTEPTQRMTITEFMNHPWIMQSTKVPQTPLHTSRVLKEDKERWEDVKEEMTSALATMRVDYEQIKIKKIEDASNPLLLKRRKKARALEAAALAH

[8] = target: T2, Inhibitor of nuclear factor kappa-B kinase subunit epsilon (Homo sapiens) (UniProt Q14164); experiment: Inhibition of human IKBKE (1 to 716 residues) assessed as enzyme activity at 1 uM using 33P ATP by radioactive filter binding assay; parameters: scale not given: the % may be the effect or the level left
T2 sequence (whole entry): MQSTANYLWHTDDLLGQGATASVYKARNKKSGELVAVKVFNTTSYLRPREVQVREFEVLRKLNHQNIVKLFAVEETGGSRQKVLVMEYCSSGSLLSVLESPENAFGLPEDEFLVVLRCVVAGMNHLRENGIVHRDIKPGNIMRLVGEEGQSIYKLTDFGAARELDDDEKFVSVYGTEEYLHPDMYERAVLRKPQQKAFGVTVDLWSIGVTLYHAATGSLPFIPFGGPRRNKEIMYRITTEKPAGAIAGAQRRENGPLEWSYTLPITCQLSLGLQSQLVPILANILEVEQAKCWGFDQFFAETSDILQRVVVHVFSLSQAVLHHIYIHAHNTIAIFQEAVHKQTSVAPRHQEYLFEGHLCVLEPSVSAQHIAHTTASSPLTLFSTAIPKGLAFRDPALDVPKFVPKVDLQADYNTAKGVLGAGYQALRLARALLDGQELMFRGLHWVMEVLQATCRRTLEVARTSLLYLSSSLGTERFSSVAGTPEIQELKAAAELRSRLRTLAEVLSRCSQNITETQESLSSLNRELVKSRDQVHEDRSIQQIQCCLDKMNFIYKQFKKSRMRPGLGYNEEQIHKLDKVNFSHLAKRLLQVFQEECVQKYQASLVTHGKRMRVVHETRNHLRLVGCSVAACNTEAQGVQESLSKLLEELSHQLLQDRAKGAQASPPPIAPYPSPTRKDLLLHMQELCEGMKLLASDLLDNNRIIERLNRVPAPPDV

[9] = target: Ribosomal protein S6 kinase alpha-1 (Homo sapiens) (UniProt Q15418); experiment: Inhibition of human MAPKAPK1alpha (1 to 735 residues) assessed as enzyme activity at 1 uM using 33P ATP by radioactive filter binding assay; parameters: scale not given: the % may be the effect or the level left
Sequence of Ribosomal protein S6 kinase alpha-1 (Homo sapiens) (Q15418 whole entry, the tested form may be a part): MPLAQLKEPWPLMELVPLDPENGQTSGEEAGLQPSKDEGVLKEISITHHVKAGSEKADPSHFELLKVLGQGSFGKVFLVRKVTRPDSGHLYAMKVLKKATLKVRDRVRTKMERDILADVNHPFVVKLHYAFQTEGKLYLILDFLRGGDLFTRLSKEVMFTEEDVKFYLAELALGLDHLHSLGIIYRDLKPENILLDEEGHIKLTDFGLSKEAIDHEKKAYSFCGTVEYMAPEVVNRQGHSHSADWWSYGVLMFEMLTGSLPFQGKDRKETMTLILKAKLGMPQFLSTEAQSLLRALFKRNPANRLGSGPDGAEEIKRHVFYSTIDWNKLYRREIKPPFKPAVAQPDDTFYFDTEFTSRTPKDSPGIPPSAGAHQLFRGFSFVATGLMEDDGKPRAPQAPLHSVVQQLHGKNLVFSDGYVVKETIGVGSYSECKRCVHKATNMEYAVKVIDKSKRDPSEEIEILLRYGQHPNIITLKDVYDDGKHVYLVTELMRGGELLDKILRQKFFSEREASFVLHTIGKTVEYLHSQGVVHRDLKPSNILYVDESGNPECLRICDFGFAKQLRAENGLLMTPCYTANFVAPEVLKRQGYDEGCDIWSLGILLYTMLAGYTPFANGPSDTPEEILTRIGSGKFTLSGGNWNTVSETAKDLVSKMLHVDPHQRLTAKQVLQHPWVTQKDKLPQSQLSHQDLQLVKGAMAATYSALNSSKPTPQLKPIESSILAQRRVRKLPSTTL

[10] = target: T3, 3-phosphoinositide-dependent protein kinase 1 (Homo sapiens, UniProt O15530); experiment: Inhibition of PDK1 in human PC3 cells assessed as reduction in AKT Thr308 phosphorylation after 45 mins; assay type: cell-based, PC-3
T3 sequence (O15530 whole entry): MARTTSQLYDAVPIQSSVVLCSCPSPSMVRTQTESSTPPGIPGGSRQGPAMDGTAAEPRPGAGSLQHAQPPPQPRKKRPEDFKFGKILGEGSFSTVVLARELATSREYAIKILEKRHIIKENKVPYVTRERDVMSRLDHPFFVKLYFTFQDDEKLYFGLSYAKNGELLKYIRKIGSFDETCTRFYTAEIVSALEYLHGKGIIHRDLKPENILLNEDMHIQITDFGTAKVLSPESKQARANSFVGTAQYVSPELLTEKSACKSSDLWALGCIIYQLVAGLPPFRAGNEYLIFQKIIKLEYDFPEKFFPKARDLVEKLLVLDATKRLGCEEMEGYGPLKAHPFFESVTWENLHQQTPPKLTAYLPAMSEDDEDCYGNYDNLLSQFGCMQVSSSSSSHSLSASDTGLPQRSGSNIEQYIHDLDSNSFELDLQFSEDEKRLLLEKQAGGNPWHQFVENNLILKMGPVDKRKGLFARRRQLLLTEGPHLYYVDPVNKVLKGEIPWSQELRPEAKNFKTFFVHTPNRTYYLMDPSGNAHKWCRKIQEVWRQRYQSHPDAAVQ

[11] = target: MAP kinase-activated protein kinase 3 (Homo sapiens) (UniProt Q16644); experiment: Inhibition of human MAPKAPK3 (2 to 382 residues) assessed as enzyme activity at 1 uM using 33P ATP by radioactive filter binding assay; parameters: scale not given: the % may be the effect or the level left
Sequence of MAP kinase-activated protein kinase 3 (Homo sapiens) (Q16644 whole entry, looked up, the tested form may be a part): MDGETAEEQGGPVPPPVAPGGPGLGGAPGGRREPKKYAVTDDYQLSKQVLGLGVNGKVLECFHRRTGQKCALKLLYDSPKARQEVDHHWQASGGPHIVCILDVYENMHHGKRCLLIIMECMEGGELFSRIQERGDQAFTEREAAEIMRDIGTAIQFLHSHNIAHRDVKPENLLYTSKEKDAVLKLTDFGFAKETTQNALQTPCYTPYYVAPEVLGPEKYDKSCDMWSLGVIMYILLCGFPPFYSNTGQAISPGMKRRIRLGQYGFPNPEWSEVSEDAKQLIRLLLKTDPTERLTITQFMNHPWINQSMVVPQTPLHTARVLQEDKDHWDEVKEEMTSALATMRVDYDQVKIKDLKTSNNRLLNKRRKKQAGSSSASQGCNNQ

[12] = target: Mitogen-activated protein kinase 10 (Homo sapiens) (UniProt P53779); experiment: Inhibition of human JNK3alpha1 assessed as enzyme activity at 1 uM using 33P ATP by radioactive filter binding assay; parameters: scale not given: the % may be the effect or the level left
Sequence of Mitogen-activated protein kinase 10 (Homo sapiens) (P53779 whole entry): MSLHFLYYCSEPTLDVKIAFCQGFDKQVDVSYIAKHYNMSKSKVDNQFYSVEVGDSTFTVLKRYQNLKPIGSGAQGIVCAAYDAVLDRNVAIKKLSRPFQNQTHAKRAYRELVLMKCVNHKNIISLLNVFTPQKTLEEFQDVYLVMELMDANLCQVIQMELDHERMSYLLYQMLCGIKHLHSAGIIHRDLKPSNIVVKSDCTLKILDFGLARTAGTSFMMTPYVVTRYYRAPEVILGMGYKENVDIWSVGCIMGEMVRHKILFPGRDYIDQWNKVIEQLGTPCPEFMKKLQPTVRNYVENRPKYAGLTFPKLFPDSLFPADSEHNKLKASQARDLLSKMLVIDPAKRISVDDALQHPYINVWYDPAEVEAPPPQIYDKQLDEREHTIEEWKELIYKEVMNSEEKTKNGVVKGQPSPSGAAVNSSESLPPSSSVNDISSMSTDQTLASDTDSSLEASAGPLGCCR

[13] = target: Mitogen-activated protein kinase 14 (Homo sapiens) (UniProt Q16539); experiment: Inhibition of SAPK2a (unknown origin) assessed as enzyme activity at 1 uM using 33P ATP by radioactive filter binding assay; parameters: scale not given: the % may be the effect or the level left
Sequence of Mitogen-activated protein kinase 14 (Homo sapiens) (Q16539 whole entry): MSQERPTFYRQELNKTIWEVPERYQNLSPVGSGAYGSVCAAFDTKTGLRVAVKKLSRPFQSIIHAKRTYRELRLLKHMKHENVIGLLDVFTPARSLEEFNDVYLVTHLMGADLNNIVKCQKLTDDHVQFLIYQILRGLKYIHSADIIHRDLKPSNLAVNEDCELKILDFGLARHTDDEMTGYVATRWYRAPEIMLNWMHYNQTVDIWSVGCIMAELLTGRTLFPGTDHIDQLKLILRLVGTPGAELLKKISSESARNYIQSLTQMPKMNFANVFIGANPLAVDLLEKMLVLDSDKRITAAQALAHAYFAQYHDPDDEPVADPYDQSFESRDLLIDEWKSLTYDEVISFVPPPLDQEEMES

[14] = Permeability across apical to basolateral side in human Caco2 cells; assay type: ADME, cell-based; settings: Caco-2
[15] = Intrinsic clearance in human liver microsomes; assay type: ADME; settings: read-out: CLH
[16] = Intrinsic clearance in mouse liver microsomes; assay type: ADME; settings: read-out: CLH
[17] = target: Serine/threonine-protein kinase 16 (Homo sapiens) (UniProt O75716); experiment: Inhibition of human MPSK1 (1 to 305 residues) assessed as enzyme activity at 1 uM using 33P ATP by radioactive filter binding assay; parameters: scale not given: the % may be the effect or the level left
Sequence of Serine/threonine-protein kinase 16 (Homo sapiens) (O75716 whole entry, the tested form may be a part): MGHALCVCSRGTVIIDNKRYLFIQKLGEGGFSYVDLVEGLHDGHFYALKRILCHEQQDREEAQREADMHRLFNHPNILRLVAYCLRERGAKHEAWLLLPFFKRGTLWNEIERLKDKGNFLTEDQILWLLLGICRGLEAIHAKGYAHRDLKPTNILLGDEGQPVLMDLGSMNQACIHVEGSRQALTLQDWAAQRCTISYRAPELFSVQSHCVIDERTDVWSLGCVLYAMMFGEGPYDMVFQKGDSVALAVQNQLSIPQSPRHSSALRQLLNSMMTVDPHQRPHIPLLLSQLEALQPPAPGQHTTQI

Sequence of Mitogen-activated protein kinase 1 (Homo sapiens) (P28482 whole entry, the tested form may be a part): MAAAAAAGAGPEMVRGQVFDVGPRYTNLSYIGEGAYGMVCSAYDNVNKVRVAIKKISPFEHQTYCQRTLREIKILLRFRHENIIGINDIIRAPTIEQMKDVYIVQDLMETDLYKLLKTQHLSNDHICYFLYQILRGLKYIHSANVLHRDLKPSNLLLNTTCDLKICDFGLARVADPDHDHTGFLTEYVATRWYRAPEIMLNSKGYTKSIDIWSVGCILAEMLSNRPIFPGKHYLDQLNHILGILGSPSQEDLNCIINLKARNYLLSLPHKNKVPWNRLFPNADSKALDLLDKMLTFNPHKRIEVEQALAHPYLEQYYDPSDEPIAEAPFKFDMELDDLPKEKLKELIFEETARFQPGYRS

Row | Activity [1] [%] | Activity [2] [%] | Activity [3] [%] | IC50 [4] [µM] | Activity [5] [%] | Activity [6] [%] | Activity [7] [%] | Activity [8] [%] | Activity [9] [%] | IC50 [10] [µM] | Activity [11] [%] | Activity [12] [%] | Activity [13] [%] | Papp A→B [14] [×10⁻⁶ cm/s] | microsomal CLint [15] [µL/min/mg] | microsomal CLint [16] [µL/min/mg] | Activity [17] [%] | SMILES
1 | -9 | -52 | 4 | > 10 | -15 | -12 | 13 | -48 | -56 | > 10 | 17 | 1 | -10 | – | – | – | – | CCCCc1cc(-c2c[nH]c3ncccc23)nc(N)n1
2 | -30 | – | – | > 30 | – | -78 | -23 | -91 | -88 | 2.3 | – | – | -22 | 0.3 | < 10 | < 10 | – | CCCCc1cc(-c2c[nH]c3ncc(-c4cnn(C5CCNCC5)c4)cc23)nc(N)n1
3 | -32 | – | – | – | – | -78 | -3 | -78 | -86 | 13 | – | – | -16 | 1.3 | < 10 | < 10 | – | CCc1cc(-c2c[nH]c3ncc(-c4cnn(C5CCNCC5)c4)cc23)nc(N)n1
4 | -21 | -69 | -2 | – | -3 | -42 | -8 | -22 | -82 | > 10 | -8 | -11 | -5 | – | – | – | -4 | Nc1nccc(-c2c[nH]c3ncccc23)n1 [MERIOLIN 1]
